Legend:
[1] = test system: human malignant melanoma cell line (A-375); assay: Cytotoxicity in A-375 cells, CellTiter-Glo ATP viability, 48-h incubation; type: cell-based; details: for CC50 / cytotoxicity at 50 µM: Homo sapiens, 48 h; for CC50: A-375, 48 h, cytotoxic concentration that caused death of 50% cells; for CC50 / cytotoxicity at 50 µM / Cytotoxic activity in A-375 cells (in words): A-375 cells; for cytotoxicity at 50 µM: read-out: Primary Test Result (Cytotoxicity % at 50 µM in A-375 Cells); for Selectivity Index: ratio of CC50 in Hs27 fibroblasts over CC50 in A-375 melanoma cells; for Cytotoxic activity in A-375 cells (in words): SAR discussion
Experimental: (§1) Human malignant melanoma cell line A-375 was kindly provided by Prof. Marikki Laiho (University of Helsinki, Finland) and Hs27 human skin fibroblast cell line was kindly provided by Dr. Carmen Escobedo-Lucea (University of Helsinki, Finland). The cells were maintained in Glutamax high glucose Dulbecco’s Modified Eagle’s Medium (DMEM, Gibco), supplemented with 10% fetal bovine serum (FBS, Gibco), at 37 °C, 5% CO2.
(§2) The cells were seeded to white frame and clear bottom 96-well plates (Perkin Elmer) at the density of 10,000 cells/well for A-375 cell line and 7500 cells/well for Hs27 cell line. The cells were grown at 37 °C, 5% CO2 until they reached 70–80% confluence (approximately 24 h). Stock solutions of test compounds and a positive control (camptothecin, Sigma-Aldrich, Saint Louis, MO, USA) were prepared in DMSO and diluted into assay medium (growth medium with 5% FBS) to the final concentration. Final DMSO concentration was 0.5% in all samples. The culture medium was removed from the plate and compounds added, 200 µL/well. After 48-h incubation, the amount of ATP, which is directly proportional to the number of cells present in culture, was quantified using CellTiter-Glo® Luminescent Cell Viability kit (Promega, Madison, WI, USA), according to manufacturer’s instructions.
(§3) Origin Graphing and Analysis, version 8.6 (OriginLab, Northampton, MA, USA) was used for determination of CC50 values. The cancer cell selectivity index (SI) was calculated as a ratio of CC50 values between Hs27 fibroblasts and A-375 melanoma cells.

[2] = Cytotoxicity in Hs27 cells, CellTiter-Glo ATP viability, 48-h incubation; type: cell-based; details: human, Hs27 normal skin fibroblast cells, Hs27 normal fibroblasts
Experimental: as §1, §2, §3

[3] = test system: human cervical carcinoma HeLa cells; set-up: method as in doi:10.1016/j.tetlet.2010.07.016; details: cited from earlier work
[4] = test system: A2780S, A2780CP (SCP5), A549, MCF7, U251MG cells and NIH3T3; set-up: method as in PMID 26711149; details: cited from earlier work

SMILES	CC50 [1] [µM]	cytotoxicity at 50 µM [1] [%]	Selectivity Index [1]	CC50 at 48 h [2] [µM]	also measured
COc1c(Br)cc(C/C(=N\O)C(=O)Nc2ccc(Cl)c(C(F)(F)F)c2)cc1Br [Compound 32, (E)-N-[4-Chloro-3-(trifluoromethyl)phenyl]-3-(3,5-dibromo-4-methoxyphenyl)-2-(hydroxyimino) propanamide]	10.3	99.8	1.2	12	
COc1c(Br)cc(C/C(=N\O)C(=O)Nc2cccnc2)cc1Br [Compound 37, (E)-3-(3,5-Dibromo-4-methoxyphenyl)-2-(hydroxyimino)-N-(pyridin-3-yl)propanamide]	26.4	83.5			
COc1c(Br)cc(C/C(=N\O)C(=O)NCCc2cc(Br)c(O)c(Br)c2)cc1Br [Compound 4]					Cytotoxic effect on HeLa cells (in words) [3]: comparably strong cytotoxic effect
COc1ccc(C/C(=N\O)C(=O)NCc2ccc(Cl)c(Cl)c2)cc1 [Compound 43, (E)-N-(3,4-Dichlorobenzyl)-2-(hydroxyimino)-3-(4-methoxyphenyl)propanamide]		21.5			
COc1c(Br)cc(C/C(=N\O)C(=O)NCc2ccc(Cl)c(Cl)c2)cc1Br [Compound 31, (E)-3-(3,5-Dibromo-4-methoxyphenyl)-N-(3,4-dichlorobenzyl)-2-(hydroxyimino)propanamide]	12.4	99.7	1.8	22.3	
COc1c(Br)cc(C/C(=N\O)C(=O)Nc2ccncc2)cc1Br [Compound 38, (E)-3-(3,5-Dibromo-4-methoxyphenyl)2-(hydroxyimino)-N-(pyridin-4-yl)propanamide]		71.1			
CNCCCOc1c(Br)cc(CCNC(=O)/C(Cc2cc(Br)c(OC)c(Br)c2)=N/O)cc1Br [Compound 1, (E)-N-[3,5-Dibromo-4-[3-(methylamino)propoxy]phenethyl]-3-(3,5-dibromo-4-methoxyphenyl)-2-(hydroxyimino)propenamide]	4.3	97.9	1.2	5.2	Selectivity between A-375 and Hs27 (in words) ([1]; A-375 vs Hs27): no selectivity; Cytotoxicity against various cancer cell lines and non-cancer NIH3T3 (in words) [4]: cytotoxic
COc1ccc(NC(=O)/C(Cc2cc(Br)c(OC)c(Br)c2)=N/O)cc1Br [Compound 34, (E)-N-(3-Bromo-4-methoxyphenyl)-3-(3,5-dibromo-4-methoxyphenyl)-2-(hydroxyimino)propanamide]	16.2	100	1.4	22.5	
COc1ccc(C/C(=N\O)C(=O)Nc2ccccn2)cc1Br [Compound 42, (E)-3-(3-Bromo-4-methoxyphenyl)-2-(hydroxyimino)-N-(pyridin-2-yl)propanamide]		2.7			Cytotoxic activity in A-375 cells (in words) [1]: inactive; melting point: 214 to 217 °C (dec.)
COc1c(Br)cc(C/C(=N\O)C(=O)NCCc2cc(Br)c(OCCCN(C)C)c(Br)c2)cc1Br [Compound 29, (E)-N-[3,5-Dibromo-4-[3-(dimethylamino)propoxy]phenethyl]-3-(3,5-dibromo-4-methoxyphenyl)-2-(hydroxyimino)propanamide]	6.3	99.9	0.7	4.5	
COc1c(Br)cc(C/C(=N\O)C(=O)Nc2ccc(Cl)c(Cl)c2)cc1Br [Compound 30, (E)-3-(3,5-Dibromo-4-methoxyphenyl)-N-(3,4-dichlorophenyl)-2-(hydroxyimino)propanamide]	13.1	101	1.2	15.2	melting point: 198 °C (dec.)
COc1c(Br)cc(C/C(=N\O)C(=O)Nc2ccccn2)cc1Br [Compound 36, (E)-3-(3,5-Dibromo-4-methoxyphenyl)-2-(hydroxyimino)-N-(pyridin-2-yl)propanamide]	4.7	84.7	4.1	19.4	melting point: 192 to 196 °C (dec.)
CC[C@@]1(O)C(=O)OCc2c1cc1n(c2=O)Cc2cc3ccccc3nc2-1 [Camptothecin, reference compound]	0.06	94.7	92.3	5.54	
COc1ccc(C/C(=N\O)C(=O)Nc2ccccn2)cc1Cl [Compound 45, (E)-3-(3-Chloro-4-methoxyphenyl)-2-(hydroxyimino)-N-(pyridin-2-yl)propanamide]		4			Cytotoxic activity in A-375 cells (in words) [1]: inactive
COc1ccc(NC(=O)/C(Cc2cc(Br)c(OC)c(Br)c2)=N/O)cc1Cl [Compound 33, (E)-N-(3-Chloro-4-methoxyphenyl)-3-(3,5-dibromo-4-methoxyphenyl)-2-(hydroxyimino)propanamide]	13.5	98.9	2.0	26.4	
COc1c(Br)cc(C/C(=N\O)C(=O)Nc2cc(Cl)cc(Cl)c2)cc1Br [Compound 35, (E)-3-(3,5-Dibromo-4-methxyphenyl)-N-(3,5-dichlorophenyl)-2-(hydroxyimino)propanamide]	9.6	101	1.3	12.2	
COc1c(Br)cc(C/C(=N\O)C(=O)Nc2ccc(N(C)C)cc2)cc1Br [Compound 40, (E)-3-(3,5-Dibromo-4-methoxyphenyl)-N-[4-(dimethylamino)phenyl]-2-(hydroxyimino)propanamide]	27.8	99.1			
COc1c(Br)cc(C/C(=N\O)C(=O)NCc2cccnc2)cc1Br [Compound 39, (E)-3-(3,5-Dibromo-4-methoxyphenyl)-2-(hydroxyimino)-N-(pyridin-3-ylmethyl)propanamide]	22.1	93.2			Cytotoxic activity in A-375 cells (in words) [1]: retained the activity
COc1c(Br)cc(C/C(=N\O)C(=O)NCCc2cc(Br)c(OCCCN)c(Br)c2)cc1Br [Compound 3]					Cytotoxic effect on HeLa cells (in words) [3]: comparably strong cytotoxic effect
COc1ccc(C/C(=N\O)C(=O)Nc2ccccn2)cc1 [Compound 44, (E)-2-(Hydroxyimino)-3-(4-methoxyphenyl)-N-(pyridin-2-yl)propanamide]		0.4			Cytotoxic activity in A-375 cells (in words) [1]: inactive
COc1ccc(C/C(=N\O)C(=O)Nc2ccc(OC)c(Br)c2)cc1Br [Compound 41, (E)-N,3-Bis(3-bromo-4-methoxyphenyl)-2-(hydroxyimino)propanamide]	19.8	99.2			Cytotoxic activity in A-375 cells (in words) [1]: showed activity
